Tests used:
Format in all cases: in vivo
[1] = tested on: barnyardgrass (Echinochloa crus-galli); assay: Test A preemergence soil spray, visual injury rating 0-100; conditions: 10 days
Method in brief: (§1)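 Seeds sown in loam-sand blend got a preemergence directed soil spray, or emerged plants (2-10 cm, one- to two-leaf) got a postemergence spray, of compound in non-phytotoxic solvent with surfactant. After 10 days in greenhouse, injury rated visually versus untreated controls on a 0 (no effect) to 100 (complete control) scale.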

[2] = tested on: blackgrass (Alopecurus myosuroides); assay: as above; conditions: 10 days
Method in brief: as §1

corn (Zea mays) [3] = assay: as above; conditions: 10 days
Method in brief: as §1

[4] = tested on: green foxtail (Setaria viridis); assay: as above; conditions: 10 days
Method in brief: as §1

kochia (Bassia scoparia) [5] = assay: as above; conditions: 10 days
Method in brief: as §1

[6] = tested on: oat, wild (wild oat, Avena fatua); assay: as above; conditions: 10 days
Method in brief: as §1

[7] = tested on: palmer (palmer amaranth, palmer pigweed, Amaranthus palmeri); assay: as above; conditions: 10 days
Method in brief: as §1

[8] = tested on: ragweed (common ragweed, Ambrosia artemisiifolia); assay: as above; conditions: 10 days
Method in brief: as §1

[9] = tested on: ryegrass, Italian (italian ryegrass, Lolium multiflorum); assay: as above; conditions: 10 days
Method in brief: as §1

soybean (Glycine max) [10] = assay: as above; conditions: 10 days
Method in brief: as §1

[11] = tested on: wheat (Triticum aestivum); assay: as above; conditions: 10 days
Method in brief: as §1

[12] = tested on: barnyardgrass (Echinochloa crus-galli); assay: Test A postemergence application, visual injury rating 0-100
Method in brief: as §1

[13] = tested on: blackgrass (Alopecurus myosuroides); assay: as above
Method in brief: as §1

corn (Zea mays) [14] = assay: as above
Method in brief: as §1

[15] = tested on: galium (catchweed bedstraw, Galium aparine); assay: as above
Method in brief: as §1

[16] = tested on: green foxtail (Setaria viridis); assay: as above
Method in brief: as §1

[17] = tested on: horseweed (Erigeron canadensis); assay: as above
Method in brief: as §1

kochia (Bassia scoparia) [18] = assay: as above
Method in brief: as §1

[19] = tested on: oat, wild (wild oat, Avena fatua); assay: as above
Method in brief: as §1

[20] = tested on: palmer (palmer amaranth, palmer pigweed, Amaranthus palmeri); assay: as above
Method in brief: as §1

[21] = tested on: ragweed (common ragweed, Ambrosia artemisiifolia); assay: as above
Method in brief: as §1

[22] = tested on: ryegrass, Italian (italian ryegrass, Lolium multiflorum); assay: as above
Method in brief: as §1

soybean (Glycine max) [23] = assay: as above
Method in brief: as §1

[24] = tested on: wheat (Triticum aestivum); assay: as above
Method in brief: as §1

[25] = tested on: barnyardgrass (Echinochloa crusgalli); assay: Test B flooded paddy test, visual plant response rating 0-100; conditions: 250 g ai/ha, Flood, applied to paddy water, evaluated after 13 days
Method in brief: (§2)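 Plants were grown to the 2-leaf stage, then pots were flooded to 3 cm above the soil and test compounds were applied directly into the paddy water. Water depth was held there throughout; after 13 days in a greenhouse, injury was scored visually against untreated controls.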

[26] = tested on: ducksalad (Heteranthera limosa); assay: as above; conditions: 250 g ai/ha, Flood, applied to paddy water, evaluated after 13 days
Method in brief: as §2

rice (Oryza sativa) = assay: as above; conditions: 250 g ai/ha, Flood, applied to paddy water, evaluated after 13 days
Method in brief: as §2

[27] = tested on: sedge, umbrella (small-flower umbrella sedge, Cyperus difformis); assay: as above; conditions: 250 g ai/ha, Flood, applied to paddy water, evaluated after 13 days
Method in brief: as §2

[28] = 62 g ai/ha, 0 = no effect, 100 = complete control
[29] = 62 g ai/ha, postemergence, 10 days, 0 = no effect, 100 = complete control
[30] = Postemergence, 16 g ai/ha, greenhouse 10 days, 0 no effect, 100 complete control

CC(C)COC(=O)C1=CCC(NC(=O)C2(C)CN(c3cc(F)cc(F)c3)C(=O)O2)C1 (stereo not shown) [Compound 97]
0: Barnyardgrass plant response rating ([1]; 16 g ai/ha, 0 to 100 scale) | Barnyardgrass plant response rating (0-100) [1, 28] | Blackgrass plant response rating ([2]; 16 g ai/ha, 0 to 100 scale) | Blackgrass plant response rating (0-100) [2, 28] | Corn plant response rating (corn (Zea mays) [3]; 16 g ai/ha, 0 to 100 scale) | Corn plant response rating (0-100) (corn (Zea mays) [3]; [28]) | Kochia plant response rating (kochia (Bassia scoparia) [5]; 16 g ai/ha, 0 to 100 scale) | Kochia plant response rating (0-100) (kochia (Bassia scoparia) [5]; [28]) | Oat, Wild plant response rating ([6]; 16 g ai/ha, 0 to 100 scale) | Oat, Wild plant response rating (0-100) [6, 28] | Pigweed, Palmer plant response rating ([7]; 16 g ai/ha, 0 to 100 scale) | Pigweed, Palmer plant response rating (0-100) [7, 28] | Ragweed plant response rating ([8]; 16 g ai/ha, 0 to 100 scale) | Ragweed plant response rating (0-100) [8, 28] | Ryegrass, Italian plant response rating ([9]; 16 g ai/ha, 0 to 100 scale) | Ryegrass, Italian plant response rating (0-100) [9, 28] | Soybean plant response rating (soybean (Glycine max) [10]; 16 g ai/ha, 0 to 100 scale) | Soybean plant response rating (0-100) (soybean (Glycine max) [10]; [28]) | Wheat plant response rating ([11]; 16 g ai/ha, 0 to 100 scale) | Barnyardgrass plant response rating (0 to 100 scale) [12, 30] | Blackgrass plant response rating (0-100) [13, 29] | Blackgrass plant response rating (0 to 100 scale) [13, 30] | Corn plant response rating (0-100) (corn (Zea mays) [14]; [29]) | Corn plant response rating (0 to 100 scale) (corn (Zea mays) [14]; [30]) | Foxtail, Green plant response rating (0-100) [16, 29] | Foxtail, Green plant response rating (0 to 100 scale) [16, 30] | Horseweed plant response rating (0-100) [17, 29] | Horseweed plant response rating (0 to 100 scale) [17, 30] | Oat, Wild plant response rating (0-100) [19, 29] | Oat, Wild plant response rating (0 to 100 scale) [19, 30] | Pigweed, Palmer plant response rating (0 to 100 scale) [20, 30] | Ragweed plant response rating (0 to 100 scale) [21, 30] | Ryegrass, Italian plant response rating (0-100) [22, 29] | Ryegrass, Italian plant response rating (0 to 100 scale) [22, 30] | Soybean plant response rating (0 to 100 scale) (soybean (Glycine max) [23]; [30]) | Wheat plant response rating (0 to 100 scale) [24, 30] | Plant response rating, Barnyardgrass (0 to 100 scale, 0 is no effect and 100 is complete control) [25] | Plant response rating, Ducksalad (0 to 100 scale, 0 is no effect and 100 is complete control) [26] | Plant response rating, Rice (0 to 100 scale, 0 is no effect and 100 is complete control) (rice (Oryza sativa)) | Plant response rating, Sedge, Umbrella (0 to 100 scale, 0 is no effect and 100 is complete control) [27]
40: Soybean plant response rating (0-100) (soybean (Glycine max) [23]; [29])
20: Foxtail, Green plant response rating ([4]; 16 g ai/ha, 0 to 100 scale) | Barnyardgrass plant response rating (0-100) [12, 29] | Galium plant response rating (0 to 100 scale) [15, 30] | Ragweed plant response rating (0-100) [21, 29]
60: Foxtail, Green plant response rating (0-100) [4, 28] | Galium plant response rating (0-100) [15, 29]
10: Wheat plant response rating (0-100) [11, 28] | Pigweed, Palmer plant response rating (0-100) [20, 29] | Wheat plant response rating (0-100) [24, 29]
30: Kochia plant response rating (0 to 100 scale) (kochia (Bassia scoparia) [18]; [30])
70: Kochia plant response rating (0-100) (kochia (Bassia scoparia) [18]; [29])
